Measured values as given in publication PMC6535779, “A Specific, Glycomimetic Langerin Ligand for Human Langerhans Cell Targeting” (ACS Central Science, 2019).

Target: T1, DC-SIGN CRD (Homo sapiens, UniProt Q9NNX6)
T1 construct: with the DC-SIGN CRD were performed at a receptor concentration of 50 μM; made in house
T1 sequence (Q9NNX6 263-378 limits assumed): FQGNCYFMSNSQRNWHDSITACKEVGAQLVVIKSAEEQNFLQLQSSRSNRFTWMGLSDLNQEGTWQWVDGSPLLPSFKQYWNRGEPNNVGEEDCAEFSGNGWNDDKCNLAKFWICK
Assay: 19F R2-filtered NMR reporter displacement assay with DC-SIGN
Type: binding
Conditions: for Ki: 19F R2-filtered NMR, DC-SIGN CRD, pH 7.0, 25 °C; for specificity: Table 1, Langerin against DC-SIGN
Description: Figure S7. 19F R2-filtered NMR assay development with DC-SIGN. […]
substantial line broadeni ng. This phenomenon was utilized to develop the 19F R2-filtered NMR reporter displacement assay following the procedure previously published for Langerin 3. The spectrum in absence of DC -SIGN is processed with an exponential apodization function at 1.8 Hz. b. The interaction between 24 and DC-SIGN was quantified via the transversal relaxation rate R2,obs using the CPMG pulse sequence4-5. Representative decay curves in the presence of DC-SIGN are shown. c. The Ca2+-dependency of the interaction was validated via addition of EDTA. The R2,obs value in absence of DC-SIGN was determined from four independent experiments. The standard error for the experiments in presence of DC-SIGN and EDTA is derived directly from the fitting procedure. d. Relaxation dispersion experiments for 24 in presence of DC-SIGN indicate at negligible exchange contribution R2,ex at a νCPMG value of 500 Hz. In contrast to Langerin, a considerable exchange contribution is observed a lower νCPMG values. e. A representative binding isotherm for the affinity determination for 24 is shown. The KD value was determined from three independent titrations. The obtained K D and additional parameters from the fitting procedure are given in Tab le S3.
(1 picture or pasted object on this page, not shown here)
Receptor Expression and Purification
General remarks. Codon-optimized genes for the expression of Langerin and DC-SIGN in E. coli were purchased from GenScript and Life Technologies, respectively. All growth media or chemicals used for receptor expression and purification were purchased from Carl Roth if not stated otherwise. […]
Langerin and DC-SIGN carbohydrate recognition domain. Expression and purification were conducted as previously published14. Briefly, the monomeric 15N-labeled Langerin and DC-SIGN carbohydrate recognition domains (CRDs) were expressed insolubly in E. coli BL21* (DE3) (Invitrogen). Following enzymatic cell lysis, inclusion bodies were harvested and subsequently solubilized. The sample was centrifuged and the Langerin and DC-SIGN CRDs were refolded overnight via rapid dilution. Next, the sample was dialyzed overnight, centrifuged and purified via StrepTactin affinity chromatography (Iba). After an additional dialysis step overnight, the sample was centrifuged and the buffer was exchanged to 25 mM HEPES with 150 mM NaCl at pH 7.0 using 7 kDa size-exclusion desalting columns (Thermo Scientific) for 19F R2-filtered and 15N HSQC NMR experiments. The concentration of Langerin and DC -SIGN CRDs was determined via UV spectroscopy (A280, 0.1% = 3.19 and A280, 0.1% = 2.98). Purity and monodispersity of Langerin and DC - SIGN CRD samples were analyzed via SDS PAGE and DLS.
General remarks. 19F R2-filtered NMR experiments were conducted on a PremiumCompact 600 MHz spectrometer (Agilent). Spectra were processed in MestReNova and data analysis was performed with OriginPro 13, 15. Experiments with the Langerin ECD were performed at a receptor concentration of 50 μM in 25 mM Tris with 10% D2O, 150 mM NaCl and 5 mM CaCl2 at pH 7.8 and 25° C. Experiments […]
with the DC-SIGN CRD were performed at a receptor concentration of 50 μM in 25 mM HEPES with 10% D2O, 150 mM NaCl and 5 mM CaCl2 at pH 7.0 and 25°C. TFA served as an internal reference at a concentration of 50 μM. Apparent relaxation rates R2,obs for the reporter ligand were determined using the CPMG pulse sequence as previously published3-5.
Assay development for DC-SIGN. The 19F R2-filtered NMR reporter displacement assay for DC-SIGN was developed following the procedure previously published for Langerin3. Briefly, the KD value and the relaxation rate in bound state R2,b were determined at five concentrations [L]T of reporter ligand 24 in three independent titration experiments. Samples were prepared via serial dilution. The addition of 10 mM EDTA served to validate the Ca2+-dependency of the interaction between DC-SIGN and the reporter ligand. […]

Structure (SMILES) | Ki [mM] | specificity (from KI values) | specificity for Langerin against DC-SIGN (from KI values) [fold] | specificity for DC-SIGN over Langerin (from KI values) [fold]
Cc1ccc(S(=O)(=O)N[C@H]2C(O)O[C@H](CO)[C@@H](O)[C@@H]2O)cc1 (some centres unmarked) [compound 2] | 17 ± 1 | 53 | – | –
CC(=O)NCCO[C@@H]1O[C@H](CO)[C@@H](O)[C@H](O)[C@H]1NS(=O)(=O)c1ccc(C)cc1 [compound 16] | 15 ± 3 | 63 | 63 | –
CC(=O)NCCO[C@H]1O[C@H](CO)[C@@H](O)[C@H](O)[C@@H]1O [compound 21] | 2.7 ± 0.3 | 0.27 | – | 3.7
